In assay [1] the target is T1, Amine oxidase [flavin-containing] A (Homo sapiens, UniProt P21397).
T1 sequence (P21397 whole entry): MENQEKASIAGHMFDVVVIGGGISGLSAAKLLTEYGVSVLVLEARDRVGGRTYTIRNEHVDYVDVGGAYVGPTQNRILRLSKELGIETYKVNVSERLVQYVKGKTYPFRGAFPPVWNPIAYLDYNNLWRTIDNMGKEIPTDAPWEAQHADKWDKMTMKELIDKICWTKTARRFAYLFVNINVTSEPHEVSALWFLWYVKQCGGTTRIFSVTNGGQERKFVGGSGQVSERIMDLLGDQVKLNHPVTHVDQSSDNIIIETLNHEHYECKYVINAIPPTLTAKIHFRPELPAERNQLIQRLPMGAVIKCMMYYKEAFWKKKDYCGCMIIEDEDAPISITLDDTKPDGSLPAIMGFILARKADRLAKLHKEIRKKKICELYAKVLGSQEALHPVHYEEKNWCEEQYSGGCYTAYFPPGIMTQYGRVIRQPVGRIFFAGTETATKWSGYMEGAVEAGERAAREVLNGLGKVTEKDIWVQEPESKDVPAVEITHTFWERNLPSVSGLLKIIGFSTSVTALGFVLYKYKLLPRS
The experiment in a line: Inhibition of human MAO-A expressed in baculovirus infected BTI insect cells preincubated for 10 mins followed by substrate addition and measured after 60 mins by luciferin-based luminescence assay.

Assay [2] concerns the target T2, Amine oxidase [flavin-containing] B (Homo sapiens, UniProt P27338).
T2 sequence (P27338 whole entry): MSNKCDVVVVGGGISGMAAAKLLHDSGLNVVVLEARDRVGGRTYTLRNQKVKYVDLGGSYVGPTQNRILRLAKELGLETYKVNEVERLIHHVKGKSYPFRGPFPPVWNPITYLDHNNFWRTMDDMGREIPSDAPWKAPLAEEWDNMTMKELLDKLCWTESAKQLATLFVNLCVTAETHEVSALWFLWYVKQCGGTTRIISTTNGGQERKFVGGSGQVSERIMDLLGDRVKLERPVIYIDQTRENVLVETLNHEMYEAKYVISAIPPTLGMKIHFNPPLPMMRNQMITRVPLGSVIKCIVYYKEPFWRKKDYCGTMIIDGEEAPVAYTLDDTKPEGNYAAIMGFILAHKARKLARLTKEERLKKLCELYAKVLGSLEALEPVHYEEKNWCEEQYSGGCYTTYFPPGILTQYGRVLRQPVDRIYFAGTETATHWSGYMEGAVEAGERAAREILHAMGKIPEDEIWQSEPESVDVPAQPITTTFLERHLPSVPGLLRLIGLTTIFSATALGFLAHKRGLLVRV
The experiment in a line: Inhibition of human MAO-B expressed in baculovirus infected BTI insect cells preincubated for 10 mins followed by substrate addition and measured after 60 mins by luciferin-based luminescence assay.

Assay [3] concerns the target T2, Amine oxidase [flavin-containing] B. The experiment in a line: biochemical.
The target of assay [4] is Lysine-specific histone demethylase 1A (Homo sapiens, UniProt O60341). Nature of the assay: Inhibition of human LSD1 (172 to 833 residues) using Lys4-dimethylated H3 (1-20) peptide as substrate incubated for 30 mins by peroxidase-coupled assay.
The target in assay [5] is T3, Lysine-specific histone demethylase 2 (Homo sapiens, UniProt Q8NB78).
T3 sequence (Q8NB78 whole entry): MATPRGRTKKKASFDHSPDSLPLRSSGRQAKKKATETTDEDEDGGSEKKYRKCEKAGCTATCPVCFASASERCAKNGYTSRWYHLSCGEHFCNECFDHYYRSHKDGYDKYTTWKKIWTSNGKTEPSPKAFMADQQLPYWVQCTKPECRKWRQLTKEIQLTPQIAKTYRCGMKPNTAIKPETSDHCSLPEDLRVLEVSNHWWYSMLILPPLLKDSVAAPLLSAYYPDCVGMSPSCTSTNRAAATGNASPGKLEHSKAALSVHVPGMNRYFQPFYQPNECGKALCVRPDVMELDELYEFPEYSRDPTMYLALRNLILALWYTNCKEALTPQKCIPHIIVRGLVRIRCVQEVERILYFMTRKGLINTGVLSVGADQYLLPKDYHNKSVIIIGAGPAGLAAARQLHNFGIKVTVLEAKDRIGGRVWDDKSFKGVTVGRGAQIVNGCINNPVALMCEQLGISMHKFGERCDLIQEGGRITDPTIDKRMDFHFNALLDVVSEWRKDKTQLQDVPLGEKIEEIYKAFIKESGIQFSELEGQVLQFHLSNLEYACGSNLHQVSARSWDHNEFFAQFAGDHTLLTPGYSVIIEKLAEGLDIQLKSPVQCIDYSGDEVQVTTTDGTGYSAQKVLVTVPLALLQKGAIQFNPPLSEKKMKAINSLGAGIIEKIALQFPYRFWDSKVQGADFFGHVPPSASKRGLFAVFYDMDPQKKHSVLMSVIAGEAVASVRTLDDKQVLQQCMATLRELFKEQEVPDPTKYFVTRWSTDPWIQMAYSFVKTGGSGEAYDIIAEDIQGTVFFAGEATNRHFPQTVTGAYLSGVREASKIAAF
The experiment in a line: Inhibition of LSD2 (unknown origin) using Lys4-dimethylated H3 (1-20) peptide as substrate incubated for 30 mins by peroxidase-coupled assay.

Assay [6] deals with T1, Amine oxidase [flavin-containing] A. Nature of the assay: Inhibition of human MAO-A expressed in baculovirus infected BTI insect cells using tyramine as substrate incubated for 30 mins by peroxidase-coupled assay.

Usually IC50 stands for the concentration needed to halve the response being measured. Low readings indicate greater potency in that assay, high ones weaker potency in that assay. In the case of `Cn1cc(C(=O)Nc2ccc([C@@H]3C[C@H]3NCC3CC3)cc2)cn1`, the IC50 in assay [1] and in assay [2] was over 100 µM throughout.

As a reminder, the Ki is a dissociation constant, usually derived from enzyme kinetics or from competition with a known ligand. Regarding `N[C@H]1CCN(C(=O)CNC2CC2c2cc(F)cc(F)c2OCc2ccccc2)C1` (stereo partly specified), the Ki was over 250 µM in assay [3], 0.56 µM in assay [4], over 250 µM in assay [5] and over 250 µM in assay [6].
